ChEMBL document CHEMBL1145073, “DNA binding ligands targeting drug-resistant bacteria: structure, activity, and pharmacology” (J Med Chem, 2003)
≈ marks a conversion by molar mass, not a printed value.

Assays:
[1] = system: Mus musculus; assay: Acute tolerability of compound in 5 ICR female mice after intravenous administration was determined; Lethality 1/5
[2] = system: Enterococcus faecalis; assay: In vitro antimicrobial activity against vancomycin-resistant Enterococcus faecalis 51559; assay type: functional
[3] = system: Enterococcus faecalis; assay: In vitro antimicrobial activity against vancomycin-susceptible Enterococcus faecalis 29212; assay type: functional
[4] = system: Staphylococcus aureus; assay: In vitro antimicrobial activity against methicillin resistant Staphylococcus aureus 27660; assay type: functional
[5] = system: Candida albicans; assay: In vitro antimicrobial activity against Candida albicans 38247; assay type: functional
[6] = In vitro antimicrobial activity against penicillin-intermediate Streptococcus pneumoniae 49619; assay type: functional
[7] = system: Bacillus cereus; assay: In vitro antimicrobial activity against Bacillus cereus 11778; assay type: functional
[8] = In vitro antimicrobial activity against penicillin resistant Streptococcus pneumoniae 51422; assay type: functional
[9] = target: Nucleic Acid; assay: Apparent binding affinity against DNA (5'-ACAATTAA-3') was determined using DNase I footprinting titration method; assay type: nucleic-acid assay; details: read-out: Kd app
[10] = system: Mus musculus; assay: Acute tolerability of compound […] female mice after intravenous administration was determined; Lethality 5/5; assay type: functional, organism-based
[11] = system: Staphylococcus aureus; assay: In vitro antimicrobial activity against MSSA 13709; assay type: functional
[12] = system: Mus musculus; assay: Acute tolerability of compound in 4 ICR female mice after intravenous administration was determined; No adverse effects; assay type: functional, organism-based
[13] = system: Mus musculus; assay: Acute tolerability of compound in 4 ICR female mice after intravenous administration was determined; no adverse effects; assay type: functional, organism-based
[14] = system: Mus musculus; assay: Acute tolerability of compound in 4 ICR female mice after intravenous administration was determined; Lethality 1/4; assay type: functional, organism-based
[15] = system: Enterococcus faecalis; assay: In vitro antimicrobial activity against vancomycin-resistant Enterococcus faecalis 51559
[16] = system: Mus musculus; assay: Acute tolerability of compound […] female mice after intravenous administration was determined; 5/5 lethargy; assay type: functional, organism-based
[17] = system: Mus musculus; assay: Acute tolerability of compound […] female mice after intravenous administration was determined; Lethality 3/5; assay type: functional, organism-based
[18] = Candida albicans, read-out: MIC

Row | Structure (SMILES) | Acute tolerability [1] | MIC [2] | MIC [3] | MIC [4] | MIC [5, 18] | MIC [6] | MIC [7] | MIC [8] | Kd [9] | Acute tolerability [10] | MIC [11] | Acute tolerability [12] | MIC [5] | Acute tolerability [13] | Acute tolerability [14] | MIC [15] | Acute tolerability [16] | Acute tolerability [17]
1 | Cn1cc(NC(=O)c2cc(NC(=O)c3cc(NC(=O)c4sccc4Cl)cn3C)cn2C)cc1C(=O)NCCN1CCC(F)CC1 | Lethality 1/5 | 0.5 µg/mL (≈ 0.761 µM) | 1 µg/mL (≈ 1.52 µM) | 1 µg/mL (≈ 1.52 µM) | > 32 µg/mL | 0.031 µg/mL (≈ 0.0472 µM) | 1 µg/mL (≈ 1.52 µM) | 0.125 µg/mL (≈ 0.19 µM) | 5 nM | – | – | – | – | – | – | – | – | –
2 | Cn1cc(NC(=O)c2cc(NC(=O)c3cc(NC(=O)c4sccc4Cl)cn3C)cn2C)cc1C(=O)NCCN1CCCC1 | – | – | 16 µg/mL (≈ 25.6 µM) | 8 µg/mL (≈ 12.8 µM) | – | 2 µg/mL (≈ 3.2 µM) | – | – | 2 nM | – | – | – | – | – | – | – | – | –
3 | Cc1cnc(-c2cc(C(=O)Nc3cc(C(=O)Nc4cc(C(=O)NCCN5CCOCC5)n(C)c4)n(C)c3)n(C)c2)cn1 | – | 4 µg/mL (≈ 6.97 µM) | 0.5 µg/mL (≈ 0.872 µM) | 2 µg/mL (≈ 3.49 µM) | > 32 µg/mL | 0.25 µg/mL (≈ 0.436 µM) | 1 µg/mL (≈ 1.74 µM) | 0.25 µg/mL (≈ 0.436 µM) | – | Lethality 5/5 | – | – | – | – | – | – | – | –
4 | Cn1cc(NC(=O)c2cc(NC(=O)c3cc(-c4nccs4)cn3C)cn2C)cc1C(=O)NCCN1CCOCC1 | – | – | > 32 µg/mL | – | – | > 32 µg/mL | – | – | – | – | > 32 µg/mL | – | – | – | – | – | – | –
5 | Cn1cc(NC(=O)c2cc(NC(=O)c3cc(NC(=O)c4sccc4Cl)cn3C)cn2C)cc1C(=O)NCCN1CCC(F)(F)CC1 | – | – | 2 µg/mL (≈ 2.96 µM) | 2 µg/mL (≈ 2.96 µM) | – | 0.5 µg/mL (≈ 0.741 µM) | – | – | 50 nM | – | – | – | – | – | – | – | – | –
6 | Cn1cc(NC(=O)c2cc(NC(=O)c3cc(NC(=O)c4sccc4Cl)cn3C)cn2C)cc1C(=O)NCCCN1CCOCC1 | – | 8 µg/mL (≈ 12.2 µM) | 4 µg/mL (≈ 6.11 µM) | 8 µg/mL (≈ 12.2 µM) | > 32 µg/mL | 2 µg/mL (≈ 3.05 µM) | 8 µg/mL (≈ 12.2 µM) | 8 µg/mL (≈ 12.2 µM) | 71 nM | – | – | – | – | – | – | – | – | –
7 | Cn1cc(NC(=O)c2cc(NC(=O)c3cc(NC(=O)c4sc5cc(F)ccc5c4Cl)cn3C)cn2C)cc1C(=O)NCCN1CCOCC1 | – | – | 0.25 µg/mL (≈ 0.353 µM) | – | > 32 µg/mL | 0.125 µg/mL (≈ 0.176 µM) | 0.25 µg/mL (≈ 0.353 µM) | – | – | – | – | No adverse effects | – | – | – | – | – | –
8 | Cn1cc(NC(=O)c2cc(NC(=O)c3cc(-c4sccc4Cl)cn3C)cn2C)cc1C(=O)NCCN1CCOCC1 | – | 1 µg/mL (≈ 1.67 µM) | 1 µg/mL (≈ 1.67 µM) | 4 µg/mL (≈ 6.69 µM) | – | 0.125 µg/mL (≈ 0.209 µM) | 1 µg/mL (≈ 1.67 µM) | 0.125 µg/mL (≈ 0.209 µM) | 20 nM | – | – | – | > 32 µg/mL | no adverse effects | – | – | – | –
9 | Cn1cc(NC(=O)c2cc(NC(=O)c3cc(-c4ccc(Cl)cc4F)cn3C)cn2C)cc1C(=O)NCCN1CCOCC1 | – | 0.5 µg/mL (≈ 0.82 µM) | 0.5 µg/mL (≈ 0.82 µM) | 2 µg/mL (≈ 3.28 µM) | > 32 µg/mL | 0.25 µg/mL (≈ 0.41 µM) | 0.5 µg/mL (≈ 0.82 µM) | 0.062 µg/mL (≈ 0.102 µM) | 0.1 nM | Lethality 5/5 | – | – | – | – | – | – | – | –
10 | Cn1cc(NC(=O)c2cc(NC(=O)c3cc(NC(=O)c4sccc4Cl)cn3C)cn2C)cc1C(=O)NCCc1ccccn1 | – | – | 2 µg/mL (≈ 3.16 µM) | 2 µg/mL (≈ 3.16 µM) | – | 2 µg/mL (≈ 3.16 µM) | – | – | 100 nM | – | – | – | – | – | – | – | – | –
11 | Cn1cc(NC(=O)c2cc(NC(=O)c3cc(NC(=O)c4cc5ccccc5cn4)cn3C)cn2C)cc1C(=O)NCCN1CCSCC1 | – | 0.125 µg/mL (≈ 0.187 µM) | 0.25 µg/mL (≈ 0.374 µM) | 0.125 µg/mL (≈ 0.187 µM) | > 32 µg/mL | 0.031 µg/mL (≈ 0.0464 µM) | 0.25 µg/mL (≈ 0.374 µM) | 0.062 µg/mL (≈ 0.0928 µM) | 1 nM | – | – | No adverse effects | – | – | – | – | – | –
12 | Cn1cc(NC(=O)c2cc(NC(=O)c3cc(NC(=O)c4sccc4Cl)cn3C)cn2C)cc1C(=O)NCCN1CCSCC1 | – | 2 µg/mL (≈ 3.04 µM) | 0.5 µg/mL (≈ 0.761 µM) | 1 µg/mL (≈ 1.52 µM) | > 32 µg/mL | 0.125 µg/mL (≈ 0.19 µM) | 0.5 µg/mL (≈ 0.761 µM) | 0.062 µg/mL (≈ 0.0943 µM) | < 1 nM | – | – | No adverse effects | – | – | – | – | – | –
13 | Cn1cc(NC(=O)c2cc(NC(=O)c3cc(-c4ccc(F)cc4Cl)cn3C)cn2C)cc1C(=O)NCCN1CCOCC1 | – | – | 8 µg/mL (≈ 13.1 µM) | – | – | 4 µg/mL (≈ 6.56 µM) | – | – | – | – | 16 µg/mL (≈ 26.2 µM) | – | – | – | – | – | – | –
14 | Cn1cc(NC(=O)c2cc(NC(=O)c3cc(NC(=O)c4cn5ccsc5n4)cn3C)cn2C)cc1C(=O)NCCN1CCOCC1 | – | – | 0.5 µg/mL (≈ 0.773 µM) | – | > 32 µg/mL | 0.031 µg/mL (≈ 0.0479 µM) | 2 µg/mL (≈ 3.09 µM) | – | – | – | – | – | – | – | Lethality 1/4 | – | – | –
15 | Cn1cc(NC(=O)c2cc(NC(=O)c3cc(NC(=O)c4sccc4Cl)cn3C)cn2C)cc1C(=O)NCCN1CCCCC1 | – | – | 0.5 µg/mL (≈ 0.782 µM) | 0.5 µg/mL (≈ 0.782 µM) | 32 µg/mL (≈ 50.1 µM) | 0.25 µg/mL (≈ 0.391 µM) | 0.5 µg/mL (≈ 0.782 µM) | 2 µg/mL (≈ 3.13 µM) | 5 nM | – | – | – | – | – | – | 2 µg/mL (≈ 3.13 µM) | 5/5 lethargy | –
16 | CN(C)CCCNC(=O)c1cc(NC(=O)c2cc(NC(=O)c3cc(NC(=O)c4sccc4Cl)cn3C)cn2C)cn1C | – | – | 16 µg/mL (≈ 26.1 µM) | 8 µg/mL (≈ 13 µM) | – | 4 µg/mL (≈ 6.52 µM) | – | – | 5 nM | – | – | – | – | – | – | – | – | –
17 | Cn1cc(NC(=O)c2cc(NC(=O)c3cc(NC(=O)c4sccc4Cl)cn3C)cn2C)cc1C(=O)NCCCN1CCCCC1 | – | – | 4 µg/mL (≈ 6.12 µM) | 8 µg/mL (≈ 12.2 µM) | > 32 µg/mL | 4 µg/mL (≈ 6.12 µM) | 8 µg/mL (≈ 12.2 µM) | 16 µg/mL (≈ 24.5 µM) | 50 nM | – | – | – | – | – | – | 16 µg/mL (≈ 24.5 µM) | – | Lethality 3/5
18 | Cn1cc(NC(=O)c2cc(NC(=O)c3cc(NC(=O)c4cc5ccccc5cn4)cn3C)cn2C)cc1C(=O)NCCN1CCCC1 | – | – | 2 µg/mL (≈ 3.15 µM) | 0.5 µg/mL (≈ 0.786 µM) | – | 0.062 µg/mL (≈ 0.0975 µM) | – | – | – | – | – | – | – | – | – | – | – | –
